{"source": "patent US11278555B2", "about": "“Combinational therapies for treatment of cancer comprising a bacteriochlorophyll derivative” (Yeda Research and Development Co. Ltd., priority 2016, dated 2022)", "test_system": "s.c. 4T1-luc breast tumors", "assay": "WST11 VTP with or without single dose CTX in mice bearing s.c. 4T1-luc tumors in the hind leg (Scheme 4)", "assay_type": "in vivo, Balb/c mice", "method": "• (i) Bacteriochlorophyll Derivatives—The Bchl derivatives and RGD-conjugates thereof were provided by Steba Biotech (Rehovot, Israel). […] Concentration was verified by spectrophotometric measurement. STL-7012 was provided as dipotassium salt. Working solution was prepared by dissolving STL-7012 K^+ salt in 5% mannitol solution (1 mg/ml). […] WST11 was supplied as a powder and kept in the dark at −20° C. Stock was prepared by dissolving WST11 in DDW containing 5% glucose and 0.67% mannitol, aliquoted and lyophilized. Working solution was reconstituted with DDW and the concentration of solution was confirmed spectrophotometrically. Alternatively, Clinical WST11 (batch: P00611, and 10-130611) was supplied as lyophilized formulation. Material was dissolved in 5% dextrose, aliquoted and stored at −20° C. […] Aliquots were thawed, diluted with saline to a desired concentration and used on the same day at a dose of 75 mg/kg. Cyclophosphamide (CTX, Endoxan®, Baxter Oncology Gmbh, Germany) was purchased from a local pharmacy. A stock solution of 20 mg/ml was prepared by dissolving in 0.9% NaCl, aliquoted and stored at −20° C. Aliquots were thawed, diluted with saline if needed to a desired concentration and used on the same day prepared at indicated doses. • (iii) Murine cell lines—Mammary luciferase (luc)-labeled 4T1 cell line (4T1-Luc) was a kind gift from Dr. Zvi Granot (Faculty of Medicine, The Hebrew University of Jerusalem, Israel); melanoma B16-F10 cell line was obtained from the American Type Culture Collection (ATCC, Manassas, Va.); bladder MB49 cell line was a kind gift from James Allison (MSKCC, New York, USA), and luc-labeled MB49-cell line was established using the murine stem cell virus (MSCV)-puromycin-luc-GFP construct (kindly provided by Dr. Emily Cheng, Human Oncology and Pathogenesis Program, MSKCC). 4T1 and MB49 cells were maintained in DMEM medium and B16-F10 cells in RPMI medium supplemented with 1 mmol/L sodium pyruvate, 10% fetal calf serum (FCS), 250 μg/ml hygromycin, 0.06 mg/ml penicillin and 0.1 mg/ml streptomycin. The cells were grown as monolayer at 37° C. in a humidified atmosphere (5% CO2, 95% air). • (iv) Murine tumor models—Female, Balb/c mice (6-8 week old) were grafted either subcutaneously (s.c.) into the right hind leg or orthotopically with 1×10^6 4T1 cells suspended in 50 or 1000 PBS. […] Whole body imaging of luciferase-transfected tumors and metastases were recorded five minutes following 75 mg Kg^−1 intraperitoneal (i.p.) injection of D-luciferin with respective filter sets. • (vi) PDT treatment protocol: 4T1-Luc cells were grafted in the mammary pad of Balb/c mice. […] Ablation of primary tumors was assessed every 7 days by imaging the tumor's luciferase-mediated bioluminescence signal, using IVIS.", "data": [{"smiles": "CCC1c2cc3[n-]c(c(CC(=O)OC)c4nc(cc5[n-]c(cc(n2)C1C)c(C(C)=O)c5C)C(C)C4CCC(=O)[O-])c(C(=O)NCCS(=O)(=O)[O-])c3C.[K+].[K+].[Pd+2]", "note": "(stereo not drawn) [WST11, Palladium 3^1-oxo-15-methoxycarbonylmethyl-rhodobacteriochlorin 13^1-(2-sulfoethyl) amide dipotassium salt]", "values": [{"measurement": "primary tumor growth", "setting": "CTX 50 or 150 mg/kg alone, WST11 VTP at low light intensity (100 mW/cm^2) alone, or combination", "value": "unable to suppress primary tumor growth"}, {"measurement": "lung metastases", "setting": "VTP alone, even when primary tumor completely ablated", "value": "most of the mice subjected to VTP alone developed lung metastases"}, {"measurement": "time to tumor regrowth", "setting": "WST11 VTP at high light dose (150 mW/cm^2)", "value": "doubled"}]}]}
